Values joined by “and” are separate entries in the source; they are usually repeats but may differ in a detail not shown here. Equal values may be shown once.
Experiments:
[1] = tested on: striatal D2/3R; experiment: Ex vivo autoradiography study in rats
Procedure: To further assess the specific binding of [^18F]FEt-AMC13 to the striatal D2/3R, two groups of rats were anesthetized, pre-treated with saline (n = 3) or raclopride (n = 3), and 26 ± 3 min later injected with a bolus of [^18F]FEt-AMC13 (4.2 ± 1.4 MBq, 0.14 ± 0.04 nmol/kg) into the penile vein. Rats were sacrificed by heart extirpation 35 min later. Brains were quickly extracted and separated into two halves along the sagittal symmetry plane or along the coronal plane spanning the thalamus.
One half of the brain (rostral or randomly taken left/right) was quickly frozen over liquid nitrogen and prepared for cutting on the microtome in the same manner as brains used for in vitro autoradiography. Slices 40 μm thick were cut, mounted on Superfrost glass slides, permitted to dry, and then directly applied to the phosphor storage screens.
(§1) Degree of D2/3R-specific binding of the tracers was characterized by BPND (as given above) or the specific binding ratio (SBR) given as target region activity/cerebellar activity - 1. Both were calculated under control conditions and in response to the raclopride challenge.

[2] = tested on: D2/3R; experiment: In vitro autoradiography of rat brain slices; assay type: binding, Sprague-Dawley rats
Procedure: In vitro autoradiography assay was performed as previously described. Frozen brains of young (10–12 weeks of age; 300–350 g body weight) male Sprague-Dawley rats (Harlan, Netherlands) were cut at −12 °C into sagittal slices 20 μm thick using a Leica microtome, and the slices were thaw-mounted on Superfrost (70 × 22 mm, Fischer) adhesive slides. Only slices containing both striatal and cerebellar regions were used. The slides with slices mounted them were allowed to dry, then put into storage boxes with silica gel bags and stored at −80 °C.
On the day of the experiment (within 1 week from the preparation of the slices), the slides were taken out of storage and allowed to come to room temperature for 5–10 min. Then, 1–1.2 mL of incubation buffer (50 mM Tris-HCl, 5 mM KCl, 2 mM CaCl2, 2 mM MgCl2, 120 mM NaCl, pH 7.4 25 °C) was applied per slide, and the slides were pre-incubated for 15 min at room temperature. The buffer was then removed, and the slides were placed into staining jars containing radioligand solution (concentration range of 0.1–10 nM) in the incubation buffer with or without 10 μM raclopride (D2/3 antagonist) or 100 μM guanosine-5'-triphosphate sodium salt (GTP, stimulator of G-protein uncoupling from the receptors). After 35 min of incubation at 37 °C, slides were washed once with ice-cold incubation buffer (3.5 min) and dipped for 30 s into ice-cold distilled water to remove buffer salts.
After drying the slides in a stream of room-temperature air, they were exposed on phosphor storage screens for 6–10 h. The storage screens were read by Cyclone Storage Phosphor System (Packard Instruments Co.). Quantification of plate readings was done with OptiQuant software (version 3.00, Packard Instruments Co.).
as §1

For `Oc1ccc2c(c1)O[C@@H](CNCc1ccc(OCC[18F])cc1)CC2` [[^18F]FEt-AMC13], the “Ex vivo autoradiography-based SBR” value ([1]; 1 mg/kg raclopride) was 1.06 ± 0.17, the “decrease of ex vivo autoradiography-based SBR” value ([1]; 1 mg/kg raclopride, p < 0.01) was 39% and the “Striatum-to-cerebellum uptake ratio (ex vivo autoradiography)” value ([1]; 35 min post-injection, saline pre-treated rats) was 2.8 and 2.81 ± 0.29. For the same compound, the “Ex vivo autoradiography-based SBR” value ([1]; saline pre-treated) was 1.81 ± 0.29, the “decrease of striatal SBR (D2/3R-specific binding) by raclopride in vitro” value ([2]; 10 μM raclopride, compared to control conditions) was 81% and the “mean striatum-to-cerebellum uptake ratio in vitro” value ([2]; rat brain slices) was 4.4. The “Striatal SBR % change relative to control condition, Raclopride” value ([2]; with 10 μM raclopride) was −81%, the “Striatal SBR, Raclopride” value ([2]; with 10 μM raclopride) was 0.63 ± 0.53 and the “Striatal SBR % change relative to control condition, GTP” value ([2]; with 100 μM GTP) was −81%. For the same compound, the “Striatal SBR, GTP” value ([2]; with 100 μM GTP) was 0.66 ± 0.52.
